Bridge positions count the residues as written; N and C are the ends. Square brackets hold non-standard residues; d marks the D form. Peptide text beside a SMILES is read from it. 2Nal = N[C@@H](Cc1ccc2ccccc2c1)C(=O)O; Lys(iPr) = CC(C)NCCCC[C@H](N)C(=O)O
Assay: Half-life in mice
Conditions: mouse, in vivo, read-out: half-life (T½) (converted)
Description: Pharmacologic properties such as compound bioavailability, in vivo metabolic stability, and pharmacokinetic/pharmacodynamic properties can be determined by methods well known in the art of drug development. […] For example, in mice, the half-life (T½) of the compound of Example 58 is about 3 hours. With respect to pharmacodynamic properties, preferred compounds induce prolonged neutrophil and white blood cell mobilization in mice. For example, the compound of Example 25 induces a significant increase of neutrophils and white blood cells in peripheral blood for at least 6 hours after single dose subcutaneous administration at 5 mg/kg in mice.

half-life: ~3 h
SMILES: CC(C)NCCCC[C@@H]1NC(=O)[C@H](Cc2ccc(O)cc2)NC(=O)[C@H](Cc2ccccc2)NC(=O)CC[C@H](C(=O)N[C@@H](CCCNC(=N)N)C(N)=O)NC(=O)CNC(=O)[C@H](Cc2ccc3ccccc3c2)NC(=O)[C@@H](CCCNC(=N)N)NC1=O [Example 58, cyclo[Phe-Tyr-Lys(iPr)-DArg-2Nal-Gly-DGlu]-Arg-NH2] (FY[Lys(iPr)][dR][2Nal]G[dE]R-NH2; lactam N-7)

Reference: patent USRE42274E1, “Cyclic peptide CXCR4 antagonists” (Eli Lilly and Company, priority 2007, dated 2011)
